How the values were obtained:
Leishmania donovani [1] = assay: Antileishmanial activity against Leishmania donovani; assay type: functional, organism-based
[2] = Cytotoxicity against human HepG2 cells incubated for 48 hrs by PI staining based flow cytometric analysis; assay type: toxicity, cell-based
[3] = Cytotoxicity against human THP-1 cells incubated for 72 hrs by DAPI staining based analysis; assay type: toxicity, cell-based
[4] = Selectivity index, ratio of CC50 for cytotoxicity against human HepG2 cells to IC50 for antileishmanial activity against Leishmania donovani MHOM/IN/1983/AG83 axenic amastigotes; assay type: toxicity, cell-based; conditions: read-out: Ratio CC50/IC50
Leishmania donovani [5] = assay: Antileishmanial activity against Leishmania donovani MHOM/IN/1983/AG83 axenic amastigotes assessed as inhibition of growth incubated for 48 hrs by flow cytometric analysis; assay type: functional, organism-based; conditions: MHOM/IN/1983/AG83, 48 h
Leishmania donovani [6] = assay: Antileishmanial activity against Leishmania donovani MHOM/IN/1983/AG83 axenic amastigotes assessed as inhibition of growth at 20 uM incubated for 48 hrs by flow cytometric analysis relative to control; assay type: functional
[7] = Stability in mouse plasma assessed as compound remaining measured after 2 hrs by LC-MS/MS analysis; assay type: ADME, cell-free; conditions: read-out: Stability
[8] = Cytotoxicity against human HepG2 cells assessed as inhibition of cell growth at 80 uM incubated for 48 hrs by PI staining based flow cytometric analysis relative to control; assay type: toxicity
[9] = Stability in human plasma assessed as compound remaining measured after 2 hrs by LC-MS/MS analysis; assay type: ADME, cell-free; conditions: read-out: Stability
[10] = Lipophilicity, logD of compound in 1-octanol and phosphate buffer at pH 7.4 by HPLC-UV analysis; assay type: physicochemical; conditions: 1-octanol/phosphate buffer
[11] = Metabolic stability in human liver microsomes assessed as hepatic blood flow preincubated for 10 mins and measured after 60 mins by LC-MS/MS analysis; assay type: ADME, Microsome; conditions: read-out: QH
[12] = Metabolic stability in human liver microsomes assessed as half-life preincubated for 10 mins and measured after 60 mins by LC-MS/MS analysis; assay type: ADME, Microsome
[13] = Metabolic stability in mouse liver microsomes assessed as half-life preincubated for 10 mins and measured after 60 mins by LC-MS/MS analysis; assay type: ADME, Microsome
[14] = Metabolic stability in mouse liver microsomes assessed as hepatic blood flow preincubated for 10 mins and measured after 60 mins by LC-MS/MS analysis; assay type: ADME, Microsome; conditions: read-out: QH

Compound | IC50 (Leishmania donovani [1]) [µM] | CC50 at 48 h [2] [µM] | CC50 at 72 h [3] [µM] | selectivity ratio [4] | IC50 (Leishmania donovani [5]) [µM] | inhibition at 20 µM (Leishmania donovani [6]) [%] | remaining at 2 h [7] [%] | inhibition at 48 h, 80 µM [8] [%] | remaining at 2 h [9] [%] | logD [10] | hepatic extraction ratio at 1 h [11] | half-life [12] [min] | half-life [13] [min] | hepatic extraction ratio at 1 h [14]
Cc1cc(N2CCc3ccccc3C2)nc(Nc2ccc(S(=O)(=O)N3CCOCC3)cc2)n1 | 5 | – | – | – | – | – | – | – | – | – | – | – | – | –
CCCCCCCCCCCCCCCCOP(=O)([O-])OCC[N+](C)(C)C [MILTEFOSINE] | – | 51.6 | 25 | 9.38 | 5.37 | – | – | – | – | – | – | – | – | –
O=C1CN(C(=O)c2cccc(Nc3ncc(-c4ccc5c(c4)OCO5)cn3)c2)CCN1 | 5 | – | – | – | – | – | – | – | – | – | – | – | – | –
COc1ccc(-c2cnc(NC(=O)c3ccc(F)cc3)n2C)cc1 | 1.2 | – | > 50 | – | 15 | – | – | – | – | – | – | – | – | –
COc1cc2c(N3CCCCC3)nc(NCc3cccc(Cl)c3)nc2cc1OC1CCCC1 | – | – | 43.8 | – | – | ~12 | – | – | – | – | – | – | – | –
COc1ccc(-c2cnc(NC(=O)c3cc(-c4ccccn4)n[nH]3)n2C)cc1 | 1 | – | – | – | – | – | – | – | – | – | – | – | – | –
COc1cc2c(N3CCCCC3)nc(NC(=O)c3ccc(F)cc3)nc2cc1OC1CCCC1 | – | > 80 | 89.5 | > 15 | 5.43 | – | 44.3 | 10.8 | 61 | 4.64 | 0.575 | 23.8 | 19.4 | 0.494
COc1cc2c(N3CCCCC3)nc(NCc3ccc(Br)cc3)nc2cc1OC1CCCC1 | – | 28.1 | 15.2 | 10.9 | 2.57 | – | 92.6 | – | 96.2 | 2.6 | 0.281 | 83.4 | 46.5 | 0.288
COc1cc2c(N3CCCCC3)nc(N(C)C)nc2cc1OC1CCCC1 | – | 66.1 | 74.3 | 9.65 | 6.85 | – | 80.1 | – | 83.8 | 2.74 | 0.452 | 39 | 13.7 | 0.579
COc1cc2c(N3CCCCC3)nc(NCc3cccc(F)c3)nc2cc1OC1CCCC1 | – | – | > 3 | – | – | ~40.8 | – | – | – | – | – | – | – | –
COc1cc2c(N3CCCCC3)nc(NCc3ccc(F)cc3)nc2cc1OC1CCNC1 (stereo unspecified) | – | 10.1 | 6.3 | 2.18 | 4.66 | – | 99.1 | – | 99 | 2.37 | 0.21 | > 120 | 52.1 | 0.42
COc1cc2c(N3CCCCC3)nc(Nc3ccc(C(F)(F)F)cc3)nc2cc1OC1CCCC1 | – | – | > 50 | – | – | ~35.3 | – | – | – | – | – | – | – | –
